The source of these data is patent publication US5700838A, “Hydroxamic acid derivatives as metalloproteinase inhibitors” (British Biotech Pharmaceuticals Limited, priority 1992, dated 1997).

Series [1] can be described thus: Aqueous solubility at ambient temperature. It counts as physicochemical. As to conditions: in water. As to the method:
The solubilities of compounds of the invention in water at ambient temperature were measured, and compared with comparison compounds C1 and C2 (identified in Biological Example A above).

Series [2] deals with adjuvant-induced arthritis. Briefly: Adjuvant-induced arthritis model (hindpaw swelling). It counts as in vivo, male Lewis rats. As to conditions: b.i.d. days 13 to 17, Example 1 dosed at 10 mg/kg. The method, then: The activities of the compound of example 1 above and comparison compound C1 (see Biological Example A above) were assessed in an adjuvant-induced arthritis model. Adjuvant arthritis was produced in male Lewis rats (Charles River) by a single intradermal injection of 0.75 mg of M. butyricum in light paraffin oil (Freunds complete adjuvant--FCA) into the base of the tail. The "secondary" lesion occurs after a delay of 10 days, and is characterised by inflammation of the […] volumes were measured plethysmographically by water displacement. The test compound was dosed b.i.d. from days 13 to 17. Paw volume on day 20 was measured and compared to that on day 13. The experiment was terminated on day 23.

Series [3] has as its system TNF α release from U937 cells. Briefly: Inhibition of PMA-stimulated TNF α release from U937 cells (ELISA). It counts as cell-based. The following applies: Homo sapiens, read-out: IC50 for release of TNF α (average concentration inhibiting release by 50% relative to control). Background: In an ELISA, binding on a coated surface is turned into a signal by an enzyme label.

Series [4] has as its target T1, stromelysin (Homo sapiens, UniProt P08254). Briefly: biochemical.
Description: (§1) The casein was acetylated ^14 C casein prepared by the method of Cawston et al (ibid).
Series [5] relates to HOSP1.P mammary carcinoma cells. Briefly: Lung colonisation assay, rat mammary carcinoma model. It counts as in vivo. The method, then: The compound of example 1 above was tested for activity in vivo in a rat mammary carcinoma model. A lung colonisation assay was performed in order to determine whether the compound of example 1 above is effective in inhibiting lung colonisation by circulating HOSP1.P mammary carcinoma cells after oral administration.
HOSP1.P cells (1×10^5 cells/animal) were administered to two groups of 12 rats by injection into the jugular vein. The product of example 1 was administered p.o. to one group at 30 mg/kg at -4, +1, +6, +24 and +72 hours relative to tumor cell inoculation at 0 hours. The second (control) group received only vehicle (p.o.) by the same schedule. Animals were killed after 34 days. Lungs were removed and individual tumors counted after 24 hours fixation in Methacarn. […] (p<0.01, Mann-Whitney, two tailed).

The nature of series [6]: Blood concentration over time after oral gavage in rats, determined as collagenase inhibitory activity of extracts. The following applies: for AUC (0-6 h) in number of IC50's × hours: oral gavage, male rats, Example 1: average of two results; for AUC(0-t) at 6 h / Tmax: rat, po.
Protocol: (§2) The concentration over time of compounds of the invention in the blood of laboratory animals following administration of the test compounds was measured.
(§3) Test compounds were administered by gavage to 6 male rats (300 g) per treatment group. Blood samples were removed by tail venepuncture at 0.5, 1.0, 2.0, 6.0 and 24 hours post administration. 0.4 ml of blood was placed into 4.5 ml tubes containing 0.1 ml acid citrate dextrose (ACD) as anti-coagulant. For extraction, 3 ml methanol was added and the precipitated blood pelletted by centrifugation (30 min at 3000 rpm). A 2 ml aliquot of supernatant was removed and concentrated by lyophilisation. The extract was redissolved in 200 μl DMSO and a 10 μl aliquot assayed for collagenase inhibitory activity.
The target in series [7] is T2, collagenase (Homo sapiens, UniProt P03956).
T2 sequence (P03956 100-469): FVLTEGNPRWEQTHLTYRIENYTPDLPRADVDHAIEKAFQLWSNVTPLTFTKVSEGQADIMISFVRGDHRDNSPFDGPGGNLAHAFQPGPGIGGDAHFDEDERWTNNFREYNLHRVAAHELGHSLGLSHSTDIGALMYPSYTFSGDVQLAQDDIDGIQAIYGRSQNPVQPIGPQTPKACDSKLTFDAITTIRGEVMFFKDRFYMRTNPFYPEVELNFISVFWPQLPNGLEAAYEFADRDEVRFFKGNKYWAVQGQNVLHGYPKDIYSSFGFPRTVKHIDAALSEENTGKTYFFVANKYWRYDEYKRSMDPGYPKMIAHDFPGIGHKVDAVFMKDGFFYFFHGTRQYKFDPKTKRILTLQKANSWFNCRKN
Briefly: biochemical.
Description: (§4) The samples were centrifuged to sediment undigested collagen, and an aliquot of the radioactive supernatant removed for assay on a scintillation counter as a measure of hydrolysis.

Another series can be described thus: in vivo. The following applies: rat, po.
The conditions of series [8]: rat, in vivo, po, 360 min.
Protocol: as §2, §3
For series [9], the target named is T1, stromelysin. The following applies: read-out: Stromelysin IC50; 37°, 16 hours, pH 7.5.
Description: as §1
The target in series [10] is T2, collagenase. As to conditions: read-out: Collagenase IC50; 37°, 16 hours, pH 7.5.
Description: as §4
Where [11] appears, read: U-937, U937 cells, PMA 50 nM, 18 hours, 37° C.

In general, solubility refers to the dissolved amount per volume that the medium holds. A high value points to a readily soluble substance. For orientation: AUC(0-t) means exposure summed from dosing to a finite time, without extrapolation to infinity. High values mean more exposure, low ones less exposure. What is called Tmax is the time at which the peak concentration occurs.

The structures appear in SMILES notation. Converted amounts (≈) assume the structure as drawn. Like-named read-outs stand apart in the source and are kept apart here. Where only a bound is given, the exact number is not on record here.

T1 sequence (P08254 100-477): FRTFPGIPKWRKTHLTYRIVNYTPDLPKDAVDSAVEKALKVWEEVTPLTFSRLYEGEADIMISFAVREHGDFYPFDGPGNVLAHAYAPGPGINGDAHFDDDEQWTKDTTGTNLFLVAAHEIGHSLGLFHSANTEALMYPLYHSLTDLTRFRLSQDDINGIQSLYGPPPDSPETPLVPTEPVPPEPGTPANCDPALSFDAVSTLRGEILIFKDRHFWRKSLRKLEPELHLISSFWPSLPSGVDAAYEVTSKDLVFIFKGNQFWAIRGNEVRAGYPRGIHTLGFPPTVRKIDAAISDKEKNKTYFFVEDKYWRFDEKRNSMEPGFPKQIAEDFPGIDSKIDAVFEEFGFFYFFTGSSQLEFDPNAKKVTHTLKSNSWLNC
Protocol for in vivo: as §2, §3

Turning to `CNC(=O)[C@H](CC1CCCCC1)NC(=O)[C@H](CC(C)C)[C@H](O)C(=O)NO` [Example 1, N^2-[3S-Hydroxy-4-(N-hydroxyamino)-2R-isobutylsuccinyl]-L-cyclohexyl alanine-N^1 methylamide], the concentration in solution in [1] (solubility) came to 100 µg/mL (≈ 269 µM). In addition, the “reduction in swelling relative to control (paw volume day 20 vs day 13)” value in [2] is “statistically significant (p<0.01) reduction in swelling relative to control”. For the same molecule, in series [3] (setting [11]), the IC50 is below 50 µM. The IC50 on stromelysin [4] amounted to 60 nM. The “Lung Colony Number, Mean” value in [5] (30 mg/kg p.o. at -4, +1, +6, +24, +72 hours, 34 days, control mean 70.50) was 38.91. The “Lung Colony Number, Median” value in series [5] (30 mg/kg p.o. at -4, +1, +6, +24, +72 hours, 34 days, control median 71.50, p <0.01) is reported as 38.50. Besides, the extrapulmonary tumors result in series [5] (30 mg/kg p.o., 34 days) was “No extrapulmonary tumors were found”. Besides, in series [5] (30 mg/kg p.o., p<0.01, Mann-Whitney, two tailed), the “inhibition of lung colonisation relative to control group” value was “significant inhibition of lung colonisation relative to the control group”. In addition, in series [6], the “AUC (0-6 h) in number of IC50's × hours” value is recorded as 46.2 n IC50 's × h, the AUC(0-t) at 6 h was 143 ng·h/mL and the Tmax is 30 min.

On to `CNC(=O)[C@H](Cc1ccc(OCC(=O)O)cc1)NC(=O)[C@H](CC(C)C)[C@H](O)C(=O)NO` [Example 2, N^2-[3S-Hydroxy-4-(N-hydroxyamino)-2R-isobutylsuccinyl]-L-(4-oxymethylcarboxy) phenylalanine-N^1-methylamide], for which the solubility in [1] is 13100 µg/mL (≈ 29900 µM). Further, the IC50 in series [3] (setting [11]) was below 50 µM; on stromelysin [4], 200 nM; against collagenase [7], 30 nM.

Take `CNC(=O)[C@@H](NC(=O)[C@H](CC(C)C)[C@H](O)C(=O)NO)c1ccccc1` [Example 3, N^2-[3S-Hydroxy-4-(N-hydroxyamino)-2R-isobutylsuccinyl]-L-phenylglycine-N^1-methylamide]: the solubility in [1] was found to be 2340 µg/mL (≈ 6660 µM). In addition, at collagenase [7], the IC50 stood at 100 nM.

In the case of `CNC(=O)[C@H](Cc1ccc(-c2ccccc2)cc1)NC(=O)[C@H](CC(C)C)[C@H](O)C(=O)NO` [Example 4, N^2-[3S-Hydroxy-4-(N-hydroxyamino)-2R-isobutylsuccinyl]-L-(4-phenyl)-phenylalanine-N^1-methylamide], the solubility in [1] stood at 110 µg/mL (≈ 249 µM).

For `CC(C)C[C@@H](C(=O)NC1CCCCCCCCCCNC1=O)[C@H](O)C(=O)NO` (stereo partly drawn) [Example 5, N^3-[3S-Hydroxy-4-(N-hydroxyamino)-2R-isobutylsuccinyl]amino-1-azacyclotridecan-2-one], in [1], the concentration in solution (solubility) came to 140 µg/mL (≈ 350 µM). Moreover, the values for the IC50 (in series [3] (setting [11]); on collagenase [7]) were below 50 µM and 20 nM, respectively.

In the case of `CNC(=O)[C@H](Cn1cccn1)NC(=O)[C@H](CC(C)C)[C@H](O)C(=O)NO` [Example 6, N^2-[3S-Hydroxy-4-(N-hydroxyamino)-2R-isobutylsuccinyl]-L-3-(1-pyrazolyl)alanine-N^1-methylamide], the concentration in solution in series [1] (solubility) came to 330 µg/mL (≈ 929 µM). The figures for the IC50 against stromelysin [4] and against collagenase [7] were 3000 nM and 30 nM, respectively.

The molecule `CNC(=O)[C@H](CCC(=O)NO)NC(=O)[C@H](CC(C)C)[C@H](O)C(=O)NO` [Example 7, N^2-[3S-Hydroxy-4-(N-hydroxyamino)-2R-isobutylsuccinyl]-L-4-(N-hydroxyamino)glutamic acid-N^1-methylamide] gave a solubility in [1] of 180 µg/mL (≈ 497 µM). In addition, the figures for the IC50 against stromelysin [4] and on collagenase [7] were 500 nM and 150 nM, respectively.

In the case of `CNC(=O)[C@H](Cc1cccs1)NC(=O)[C@H](CC(C)C)[C@H](O)C(=O)NO` [Example 8, N^2-[3S-Hydroxy-4-(N-hydroxyamino)-2R-isobutylsuccinyl]-L-3-(2-thienyl)alanine-N^1-methylamide], the results for the IC50 at stromelysin [4] and at collagenase [7] were 100 nM and 10 nM, respectively.

For `CC(C)C[C@@H](C(=O)N[C@@H](CC1CCCCC1)C(=O)NCCCN1CCCC1=O)[C@H](O)C(=O)NO` [Example 9, N^2-[3S-Hydroxy-4-(N-hydroxyamino)-2R-isobutylsuccinyl]-L-cyclohexyl alanine-N^1-(3-(2-pyrrolidone)propyl)amide], the concentration in solution in [1] (solubility) came to 1800 µg/mL (≈ 3730 µM). Further, at collagenase [7], the IC50 was determined as 30 nM.

For the molecule `CNC(=O)[C@@H](NC(=O)[C@H](CC(C)C)[C@H](O)C(=O)NO)C(C)(C)C` [Example 10, N^2-[3S-Hydroxy-4-(N-hydroxyamino)-2R-isobutylsuccinyl]-L-tert-leucine-N^1-methylamide], the concentration in solution in series [1] (solubility) came to 1400 µg/mL (≈ 4220 µM). Also, the IC50 in series [3] (U-937, 18 h) was below 50 µM. Further, in “in vivo”, the AUC(0-t) at 6 h came out at 343 ng·h/mL and the Tmax was found to be 30 min. The “AUC (0-6 h) in number of IC50's × hours” value in series [8] came out at 190 n IC50 's × h.

In turn, `CCOC(=O)[C@H](C)NC(=O)[C@H](CC(C)C)NC(=O)[C@@H](CC(=O)NO)CC(C)C` [Example C1, reference compound] came in with a solubility in series [1] of 300 µg/mL (≈ 747 µM). Further, the “reduction in swelling relative to control (paw volume day 20 vs day 13)” value in series [2] is “no effect”. The same molecule displayed an IC50 against stromelysin [4] of 300 nM. In series [6], the “AUC (0-6 h) in number of IC50's × hours” value is given as 7.4 n IC50 's × h, the AUC(0-t) at 6 h was determined as 91.7 ng·h/mL and the time of peak concentration (Tmax) is 30 min. The molecule also yielded an IC50 on collagenase [7] of 15 nM.

Molecule `CCOC(=O)CNC(=O)[C@H](CC(C)C)NC(=O)[C@H](CC(C)C)[C@H](CCCCN1C(=O)c2ccccc2C1=O)C(=O)NO` [Example C2] showed a solubility in [1] below 100 µg/mL. The IC50 at stromelysin [9] was 70 nM. In addition, the IC50 on collagenase [10] is 7 nM. In addition, in series [6], the “AUC (0-6 h) in number of IC50's × hours” value is given as 2.12 n IC50 's × h, the AUC(0-t) at 6 h was determined as 5.3 ng·h/mL and the Tmax turned out to be 60 min.
